Assay results as given in US10596184B2, “Aza-heteroaryl compounds as PI3K-gamma inhibitors” (Incyte Corporation, priority 2015, dated 2020).
Where two headings read alike, the source gives them in different places.

Tested on: Phosphorylated Ribosomal Protein S6 (RPS6) in THP-1 cells
Experiment: THP-1 RPS6 ELISA Assay
Type: cell-based, Human
Settings: 2 hours with compound, then 10 nM MCP-1 for 15 minutes, read-out: THP p-RPS6 ELISA IC50
Experimental: To measure the Phosphorylated Ribosomal Protein S6 (RPS6) in cell lysates, THP-1 cells (Human Acute Monocytic Leukemia) are purchased from ATCC (Manassas, Va.) and maintained in RPMI with 10% FBS (Gibco/Life Technologies, Carlsbad, Calif.). For the assay, THP-1 cells are serum starved overnight in RPMI, then plated in RPMI (2×10^5 cells/well in 90 μL) into 96-well flat-bottom tissue culture treated plates (Corning, Corning, N.Y.), in the presence or absence of a concentration range of test compounds. Covered plates are incubated for 2 hours at 37° C., 5% CO2 then treated with or without 10 nM MCP-1 (MYBioSource, San Diego, Calif.) for 15 minutes at 37° C., 5% CO2. Plates are centrifuged at 1600 RPM and supernatants are removed. Cells are lysed in Lysis Buffer (Cell Signaling, Danvers, Mass.) with Protease Inhibitor (Calbiochem/EMD, Germany), PMSF (Sigma, St Louis Mo.), HALTS (Thermo Fisher, Rockford, Ill.) for 30 min on wet ice. Cell lysates are frozen at −80° C. before testing. The lysates are tested in the Human/Mouse/Rat Phospho-RPS6 ELISA (R&D Systems, Inc. Minn, Minn.). The plate is measured using a microplate reader (SpectraMax M5—Molecular Devices, LLC Sunnyvale, Calif.) set to 450 nm with a wavelength correction of 540. […]

## CN1CCN(S(=O)(=O)Nc2cncc(-c3ccc4nc(-c5nc6ccccc6[nH]5)oc4c3)c2)CC1 [Example 31, N-(5-(2-(1H-Benzofdlimidazol-2-yl)benzo[d]oxazol-6-yl)pyridin-3-yl)-4-methylpiperazine-1-sulfonamide]
  IC50: < 1 µM

## CCS(=O)(=O)Nc1cncc(-c2ccc3nc(-c4nc(C)c(C)[nH]4)oc3c2)c1 [Example 63, N-(5-(2-(4,5-Dimethyl-1H-imidazol-2-yl)benzo[d]oxazol-6-yl)pyridin-3-yl)ethanesulfonamide bis(trifluoroacetate)]
Homo sapiens
  IC50: < 5 µM
